Reference: patent US9538745B2, “Methods for the cryopreservation of cells” (The General Hospital Corporation, priority 2006, dated 2017)
Where two headings read alike, the source gives them in different places.

Columns and labels:
R1 murine ES cell line [1] = assay: Attachment efficiency of ES cells post vitrification; assay type: cell-based; conditions: 0.5 M trehalose, 2 M PROH, or both; QMC plunged into liquid nitrogen; day 1; FIG. 15
From the text: (§1) For the purpose of evaluating the maintenance of embryonic stem cell pluripotency, a green fluorescent protein (GFP)-reporter cell system was used. The R1 murine ES cell line which expresses GFP under control of the Oct4 promoter was kindly provided by Andras Nagy (U. Toronto)(Nagy et al., Proc. Nat. Acad. Sci. USA 90:8424, 1993). The ES cell maintenance media consisted of Knockout DMEM+15% Knockout Serum Replacement (Invitrogen, Carlsbad, Calif.) containing 1000 U/ml LIF (Chemicon, Temecula, Calif.). Feeder layer-free ES cells were continually passaged in 0.1% gelatin-coated 75 cm^2 flasks in 5% CO2 humidified air at 37° C.
(§2) On the day of experiment, the attached cells were lightly trypsinized for 3-5 minutes and collected. The cells were pelleted at 100×g for 5 minutes and resuspended in cold stem cell media supplemented with 1.5 M 1,2-propanediol (Sigma, St Louis, Mo.) and incubated on ice for 10 minutes. […]
Cell attachment and growth was determined by counting the number of cells per field under a 10× objective. […] The attachment efficiency was calculated as the ratio of the total number of cells per field of a cryopreserved sample to that of the control non-frozen sample at day 1. To assess the proliferation of the attached cells, the total number of cells per field was further monitored for 4 days.

[2] = Vitrification of CPA laden solutions: visible opacity after plunging into liquid nitrogen; assay type: physicochemical
From the text: One convenient way for determining non-vitrification is the appearance of opacity as a result of ice formation when freezing solutions in a straw. If there is no visible opacity, it is called apparent vitrification. Although opacity could be easily identified in the traditional plastic straw using the naked eye, it is very difficult to do so for the quartz micro-capillary due to its small dimension. Therefore, an experimental setup shown in FIG. 10 was designed for visualization of opacity during cooling by directing two focused lights on the capillary held against a dark background for all the devices shown in FIG. 1 except the stainless steel micro-capillary. […] This setup was used to determine the threshold (minimum) CPA concentration required to completely avoid opacity during cooling. […] Various total CPA concentrations from 12% to 30% by volume with 2% increments were studied using both the open pulled straw and the thin walled quartz micro-capillary. Since 0.2-1 M sucrose or trehalose has been used in essentially all studies for cryopreservation of mammalian oocytes by both slow freezing and vitrification, further studies were also performed using the quartz micro-capillary for solutions with 0.5 M sucrose or trehalose plus 1.5 M, 2.0 M, and 2.5 M PROH, respectively. The solutions can be loaded into the open pulled straw and quartz micro-capillaries by capillary action while it can be expelled out of the capillaries by using a micro-syringe attached with a soft PEP polymer needle tip to push from the end of the capillaries with a bigger opening.

primary rat hepatocytes = assay type: cell-based
Method: The cell viability of hepatocytes was determined immediately post-cryopreservation in quartz micro-capillaries (QMC) in the presence of either no CPA; 0.3 M sucrose; 1.5 M 1,2-propanediol (PROH); 1.5 M PROH and 0.3 M sucrose; or 2.0 M PROH and […]. The number of viable cells was determined in both vitrified samples as well as non-vitrified controls (i.e., no freezing). Cell viability was quantified by the exclusion of trypan blue. […] There was only ˜35% survival for cells loaded with 1.5 M PROH prior to cryopreservation. Sucrose (0.3 M) was then added to the cryopreservation solution with 1.5-2 M PROH. […] When 0.3 M sucrose was added to the cryopreservation solution, the immediate viability jumped to ˜75%.

R1 murine ES cell line [3] = assay: Pluripotent properties of ES cells post vitrification (Oct-4, SSEA-1, alkaline phosphatase); assay type: cell-based; conditions: 2 M 1,2-propanediol; ultra-fast cooling in QMC
From the text: as §1
as §2, with “minutes. The cells were then spun down at 100×g for 3-5 minutes and resuspended in 1 ml first vitrification solution for 10 minutes. The cells were then spun down at 100×g for 3-5 minutes and resuspended in the second solution at 10×10^6/ml for another 10 minutes.” for “minutes.”

[4] = Critical cooling rate to achieve vitrification (Vcc) from Boutron's semi-empirical theory and DSC constant K4; assay type: physicochemical
From the text: The critical cooling rate to achieve vitrification (Vcc) is a function of the concentration of cryoprotectant. It has been extensively studied in the case of 1,2-propanediol and other alcohols with relevance in cryobiology, although mainly in the range of cooling rates achievable by differential scanning calorimetry (DSC) techniques. However, it is possible to obtain estimates of the critical cooling rates at other […]. The presence of sugars in equimolar concentrations has shown to have no effect on Vcc in the case of monosaccharides and little effect in the case of sucrose for the concentration used in these studies (0.3 M)(Kuleshova et al., Cryobiology 38:199-130, 1999). The Vcc can be inferred from Boutron's semi-empirical theory of glass forming tendency (Boutron, Cryobiology 23:88-102, 1986); it is given by:
To is the initial temperature of crystallization and xg is the amount of ice formed at the critical cooling rate. Many studies in the literature consider a solution to be vitrified when xg≦10^−6 (Liu and McGrath, Proc. 2005 IEEE Eng. Med. Biol. 27th Ann. Conference, p. 7501-7504, 2005). K4 is a constant dependent of the solution and can be determined by DSC. Although there is not data for K4 in the available literature for our solution, some estimation can be done. The values of K4 for 40%, 37.5% and 35% (w/w) of aqueous solutions of 1,2 propanediol are 24.1° C./min, 54.1° C./min and 151° C./min (Ren et al., Cryobiology 31:47-56, 1994). These values of K4 give rise to Vcc values of 8.0×10^2° C./min, 1.8×10^3° C./min and 5.0×10^3° C./min, respectively. So, a tentative value of […] for 1.8 M of 1,2-propanediol is ≈10^4° C./min. […] The exponential fitting of the data is justified by the theory (Ren et al., supra).

[5] = Ren et al., cited from earlier work
[6] = both open pulled straw and quartz micro-capillary, FIG. 14

OC[C@H]1O[C@H](O[C@H]2O[C@H](CO)[C@@H](O)[C@H](O)[C@H]2O)[C@H](O)[C@@H](O)[C@@H]1O [trehalose]
attachment efficiency (normalized to control) (R1 murine ES cell line [1]): Only a minimum amount of cells can attach

CC(O)CO (centres unmarked) [1,2-propanediol]
attachment efficiency (normalized to control) (R1 murine ES cell line [1]): Only a minimum amount of cells can attach | appearance of solution in quartz micro-capillary after plunging into liquid nitrogen ([2]; 1 M 1,2-propanediol (in FHM)): opaque | appearance of solution in quartz micro-capillary after plunging into liquid nitrogen ([2]; 2 M 1,2-propanediol (in FHM)): clear | appearance of solution in quartz micro-capillary after plunging into liquid nitrogen ([2]; 7% v 1,2-propanediol in FHM media, FIG. 10): whitish appearance | appearance of solution in quartz micro-capillary after plunging into liquid nitrogen ([2]; 14% v 1,2-propanediol in FHM media, FIG. 10): clear appearance | threshold concentration lower than that of ethylene glycol (EG) [2, 6]: ~5 % v | threshold concentration lower than that of the combination of EG and PROH in a 1:1 ratio [2, 6]: 2.5 % v | threshold concentration for the complete absence of opacity ([2]; micro-capillary): ~2 M | cell survival / immediate viability (exclusion of trypan blue) (primary rat hepatocytes): ~35% | pluripotent properties post-vitrification (Oct-4, SSEA-1, alkaline phosphatase staining) (R1 murine ES cell line [3]): retained their pluripotent properties | K4, tentative value ([4]; 1.8 M): ≈ 10^4 ° C./min | Vcc (critical cooling rate to achieve vitrification) ([4]; 35% (w/w) aqueous solution): 5.0×10^3 ° C./min | Vcc (critical cooling rate to achieve vitrification) ([4]; 37.5% (w/w) aqueous solution): 1.8×10^3 ° C./min | Vcc (critical cooling rate to achieve vitrification) ([4]; 40% (w/w) aqueous solution): 8.0×10^2 ° C./min | K4 ([5]; 35% (w/w) aqueous solution): 151 ° C./min | K4 ([5]; 37.5% (w/w) aqueous solution): 54.1 ° C./min | K4 ([5]; 40% (w/w) aqueous solution): 24.1 ° C./min

OCCO [Ethylene glycol (EG), ethylene glycol]
threshold concentration for the complete absence of opacity [2]: ~4 M

OC[C@H]1O[C@@](CO)(O[C@H]2O[C@H](CO)[C@@H](O)[C@H](O)[C@H]2O)[C@@H](O)[C@@H]1O [sucrose]
cell survival / immediate viability (exclusion of trypan blue) (primary rat hepatocytes): less than 10%
